The results in this text go back to patent US20260263547A1, “COMPOSITION FOR PREVENTING, AMELIORATING, OR TREATING ARTHRITIS, CONTAINING POTENTILLA CHINENSIS EXTRACT OR APIGENIN-7-O-GLUCURONIDE AS ACTIVE INGREDIENT” (BELABELBIO INC., priority 2023, published 2026).

Assay [1] concerns COX-2 mRNA. As to the kind of experiment: LPS-induced COX-2 mRNA expression in RAW264.7 macrophages (real-time PCR). The format is cell-based. As to conditions: LPS 500 ng/mL, 24 hours, extract 50, 100, 200 ppm, apigenin-7-O-glucuronide 50, 100, 200 μM. On the procedure:
(§1) To confirm the inhibitory efficacy of the extract of Potentilla chinensis from Example 1 and apigenin-7-O-glucuronide from Example 2 on LPS-induced COX-2 mRNA expression, the expression level of COX-2 mRNA was measured using real-time polymerase chain reaction (PCR). Specifically, RAW264.7 macrophages were obtained from the American Type Culture Collection (ATCC, MD, USA) and cultured in DMEM medium containing 10% FBS and 1% antibiotic-antimycotic under 5% CO2 at 37° C. The cells were seeded into 6-well plates at a density of 8.0×10^5 cells/2.0 mL/well and allowed to adhere for 24 hours, then treated with LPS (500 ng/mL) in DMEM to induce inflammation. The extract of Potentilla chinensis from Example 1 was treated at concentrations of 50, 100, and 200 ppm, and apigenin-7-O-glucuronide from Example 2 was treated at concentrations of 50, 100, and 200 μM, followed by incubation for 24 hours. After 24 hours, COX-2 mRNA was extracted from the cells, synthesized into cDNA, and quantitative real-time PCR was performed using specific primers to evaluate the expression level of COX-2.
In general terms: Quantitative PCR measures a nucleic acid by following its amplification.

For assay [2], the system named is MMP-1. As to the kind of experiment: PMA-induced MMP-1 secretion in SW-1353 chondrocytes (ELISA). The format is cell-based, Human. The conditions noted are these: PMA 50 ng/mL, 24 hours, extract 50, 100, 200 ppm, apigenin-7-O-glucuronide 50, 100, 200 μM. On the procedure:
To evaluate the inhibitory efficacy of the extract of Potentilla chinensis from Example 1 and apigenin-7-O-glucuronide from Example 2 on PMA-induced MMP-1 production in chondrocytes, the amount of MMP-1 secreted was measured using a Human MMP-1 ELISA kit (ab100603, Abcam, USA). Specifically, SW-1353 chondrocytes were obtained from the American Type Culture Collection (ATCC, MD, USA) and cultured in DMEM medium containing 10% FBS and 1% antibiotic-antimycotic under 5% CO2 at 37° C. The cells were seeded into 6-well plates at a density of 2.0×10^5 cells/2.0 mL/well and allowed to adhere for 24 hours, then treated with PMA (50 ng/mL) in DMEM. The extract of Potentilla chinensis from Example 1 was treated at concentrations of 50, 100, and 200 ppm, and apigenin-7-O-glucuronide from Example 2 was treated at concentrations of 50, 100, and 200 μM, followed by incubation for 24 hours. After 24 hours, the amount of MMP-1 in the supernatant was quantified using the ELISA kit, and the results are shown in FIGS. 6A and 6B.
In general terms: ELISA stands for enzyme-linked immunosorbent assay.

Assay [3] concerns IL-1β mRNA. As to the kind of experiment: LPS-induced IL-1β mRNA expression in RAW264.7 macrophages (real-time PCR). The format is cell-based. The conditions noted are these: LPS 500 ng/mL, 24 hours, extract 50, 100, 200 ppm, apigenin-7-O-glucuronide 50, 100, 200 μM. The procedure: as §1, with “Specifically,” for “To confirm the inhibitory efficacy of the extract of Potentilla chinensis from Example 1 and apigenin-7-O-glucuronide from Example 2 on LPS-induced COX-2 mRNA expression, the expression level of COX-2 mRNA was measured using real-time polymerase chain reaction (PCR). Specifically,”, “cells/1.5” for “cells/2.0”, “IL-1β” for “COX-2”, “IL-1β.” for “COX-2.”

The test system of assay [4] is Collagen Type II Alpha 1. Description: IL-1β-induced Collagen Type II Alpha 1 synthesis in SW-1353 chondrocytes (ELISA). The format is cell-based, Human. The conditions noted are these: IL-1β 40 ng/ml, 24 hours, extract 50, 100, 200 ppm, apigenin-7-O-glucuronide 50, 100, 200 μM. On the procedure:
To evaluate the stimulatory efficacy of the extract of Potentilla chinensis from Example 1 and apigenin-7-O-glucuronide from Example 2 on IL-1β-induced Collagen Type II Alpha 1 synthesis in chondrocytes, the secretion of Collagen Type II Alpha 1 was measured using a Human Collagen II Alpha 1 ELISA kit (NBP2-75853, Novus, USA). Specifically, SW-1353 chondrocytes were obtained from the American Type Culture Collection (ATCC, MD, USA) and cultured in DMEM medium containing 10% FBS and 1% antibiotic-antimycotic under 5% CO2 at 37° C. The cells were seeded into 6-well plates at a density of 2.0×10^5 cells/2.0 mL/well and allowed to adhere for 24 hours, then treated with IL-1β (40 ng/ml) in DMEM. The extract of Potentilla chinensis from Example 1 was treated at concentrations of 50, 100, and 200 ppm, and apigenin-7-O-glucuronide from Example 2 was treated at concentrations of 50, 100, and 200 μM, followed by incubation for 24 hours. After 24 hours, the amount of Collagen II Alpha 1 in the supernatant was quantified using the ELISA kit, and the results are shown in FIGS. 9A and 9B.

Assay [5] deals with MMP-9. Description: PMA-induced MMP-9 secretion in SW-1353 chondrocytes (ELISA). As to conditions: PMA 50 ng/mL, 24 hours, apigenin-7-O-glucuronide 50, 100, 200 μM. The format is cell-based, Human. The procedure: To evaluate the inhibitory efficacy of apigenin-7-O-glucuronide from Example 2 on PMA-induced MMP-9 production in chondrocytes, the amount of MMP-9 secreted was measured using a Human MMP-9 ELISA kit (ab246539, Abcam, USA). Specifically, SW-1353 chondrocytes were obtained from the American Type Culture Collection (ATCC, MD, USA) and cultured in DMEM medium containing 10% FBS and 1% antibiotic-antimycotic under 5% CO2 at 37° C. The cells were seeded into 6-well plates at a density of 2.0×10^5 cells/2.0 mL/well and allowed to adhere for 24 hours, then treated with PMA (50 ng/mL) in DMEM. The extract of Potentilla chinensis from Example 1 was treated at concentrations of 50, 100, and 200 ppm, and apigenin-7-O-glucuronide from Example 2 was treated at concentrations of 50, 100, and 200 μM, followed by incubation for 24 hours. After 24 hours, the amount of MMP-1 in the supernatant was quantified using the ELISA kit, and the results are shown in FIG. 8.

Assay [6] relates to nitric oxide (NO) production. As to the kind of experiment: LPS-induced nitric oxide (NO) production in RAW264.7 macrophages (Griess reagent). The format is cell-based. The conditions noted are these: LPS 500 ng/ml, 24 hours, extract 50, 100, 200 ppm, apigenin-7-O-glucuronide 50, 100, 200 μM. The procedure: To confirm the NO-reducing effect of the extract of Potentilla chinensis from Example 1 and apigenin-7-O-glucuronide from Example 2, an inflammatory response was induced with LPS and subsequent changes in NO were measured. Specifically, RAW264.7 macrophages were obtained from the American Type Culture Collection (ATCC, MD, USA) and cultured in DMEM (Dulbecco's Modified Eagle's Medium) containing 10% FBS and 1% antibiotic-antimycotic under 5% CO2 at 37° C. The cells were seeded into 6-well plates at a density of 8.0×10^5 cells/1.5 mL/well and allowed to adhere for 24 hours, then treated with LPS (500 ng/ml) to induce inflammation. The extract of Potentilla chinensis from Example 1 was added at concentrations of 50, 100, and 200 ppm, and apigenin-7-O-glucuronide from Example 2 was added at concentrations of 50, 100, and 200 μM, followed by incubation for 24 hours. Next, 100 μL of the culture supernatant was transferred to a 96-well plate, mixed with 100 μL of Griess reagent (0.1% N-(1-naphtyl)ethylenediamine, 1% sulfanilamide), and reacted for 10 minutes. The absorbance of the resulting azo-derivative was measured at 540 nm using a microplate reader (BioTek, Vermont, USA). The measured absorbance was converted into nitrite concentration using a standard curve prepared with sodium nitrite dilutions, and the amount of NO produced was calculated.
In general terms: Nitrite, measured by Griess reagent, commonly stands in for NO production.

SMILES strings stand for the structures.

Turning to `O=C(O)[C@H]1O[C@@H](Oc2cc(O)c3c(=O)cc(-c4ccc(O)cc4)oc3c2)[C@H](O)[C@@H](O)[C@@H]1O` [apigenin-7-O-glucuronide], the “LPS-induced COX-2 mRNA expression” value in assay [1] is recorded as “significantly inhibited COX-2 mRNA expression”. In addition, the “PMA-induced MMP-1 secretion” value in assay [2] was “significantly inhibited MMP-1 secretion in a concentration-dependent manner”. In assay [3], the “LPS-induced IL-1β mRNA expression” value was “significantly inhibited IL-1β mRNA expression in a concentration-dependent manner”. Besides, in assay [4], the “IL-1β-induced Collagen Type II Alpha 1 synthesis” value is “significantly increased Collagen Type II Alpha 1 synthesis in a concentration-dependent manner”. Besides, in assay [5], the “PMA-induced MMP-9 secretion” value is given as “significantly inhibited MMP-9 secretion in a concentration-dependent manner”. In assay [6], the “LPS-induced NO production” value was “significantly inhibited NO production in a concentration-dependent manner”.
